Measurements reported in US20030100580A1, “Urotensin-II receptor antagonists” (priority 2002, published 2003).

Experiments:
[1] = molecular target: T1, cloned human and rat GPR-14 (UniProt Q9UKP6); test: Radioligand binding ([125I] h-U-II) to HEK-293 cell membranes containing GPR-14; settings: HEK-293 membranes, 200 pM [125I] h-U-II; human or rat receptor not specified
T1 sequence (Q9UKP6 1-389): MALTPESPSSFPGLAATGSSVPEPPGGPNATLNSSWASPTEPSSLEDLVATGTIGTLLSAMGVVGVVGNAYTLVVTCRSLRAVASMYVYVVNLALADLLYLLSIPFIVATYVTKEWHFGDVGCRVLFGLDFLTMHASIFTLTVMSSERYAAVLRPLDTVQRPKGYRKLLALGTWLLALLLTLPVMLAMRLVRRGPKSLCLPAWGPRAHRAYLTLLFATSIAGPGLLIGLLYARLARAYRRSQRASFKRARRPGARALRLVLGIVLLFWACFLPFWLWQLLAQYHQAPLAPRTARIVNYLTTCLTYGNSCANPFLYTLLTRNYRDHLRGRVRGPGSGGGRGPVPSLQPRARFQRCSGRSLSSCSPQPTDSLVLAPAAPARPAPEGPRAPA
Description: HEK-293 cell membranes containing stable cloned human and rat GPR-14 (20 ug/assay) were incubated with 200 pM [125I] h-U-II (200 Ci/mmol^−1 in the presence of increasing concentrations of test compounds in DMSO (0.1 nM to 10 uM), in a final incubation volume of 200 ul (20 mM Tris-HCl, 5 mM MgCl2). Incubation was done for 30 minutes at room temperature followed by filtration GF/B filters with Brandel cell harvester. ^125I labeled U-U binding was quantitated by gamma counting. Nonspecific binding was defined by ^1251I U-II binding in the presence of 100 nM of unlabeled human U-II. Analysis of the data was performed by nonlinear least square fitting.

rat-isolated aorta = settings: cited from earlier work

## COc1ccc(S(=O)(=O)Nc2ccc(Cl)c(OCCN(C)C)c2)cc1OC [Example 1, N-[4-Chloro-3-(2-dimethylamino-ethoxy)phenyl]-3,4-dimethoxy-benzenesulfonamide]
other
  melting point: 228 to 229 °C

## CN(C)CCOc1cc(NS(=O)(=O)c2ccc(Br)cc2)ccc1I [Example 8, 4-Bromo-N-[4-iodo-3-(2-dimethylamino-ethoxy)-phenyl]-benzenesulfonamide]
[1]
  Ki: 1300 nM

## CC(C)[C@H](NC(=O)[C@@H]1CSSC[C@H](NC(=O)[C@H](CC(=O)O)NC(=O)[C@@H]2CCCN2C(=O)[C@@H](NC(=O)[C@@H](N)CCC(=O)O)[C@@H](C)O)C(=O)N[C@@H](Cc2ccccc2)C(=O)N[C@@H](Cc2c[nH]c3ccccc23)C(=O)N[C@@H](CCCCN)C(=O)N[C@@H](Cc2ccc(O)cc2)C(=O)N1)C(=O)O [Human Urotensin-II]
rat-isolated aorta
  contractile activity: most potent contractile agonist identified to date
